Experimental data from patent US11091806B2, “Genetic markers associated with response to CRTH2 receptor antagonists” (Merck Sharp & Dohme Corp., priority 2015, dated 2021).

What was measured:
[1] = test system: patient population afflicted with eosinophilic severe asthma; settings: patients with eosinophilic severe asthma; Phase IIa; cited from earlier work
[2] = test system: asthmatic subjects with persistent symptoms; assay: 17-week randomized, double-blind, placebo-controlled, crossover study of FEV1 in asthmatic subjects receiving montelukast, with pharmacogenetic subgroup analysis; assay type: in vivo, human; settings: for Estimated mean treatment difference in FEV1 at Week 4 using the new method of analysis, LSMean: Compound A + montelukast vs placebo + montelukast, xdiff=0
Source text: FIG. 2 is graphical depiction of the study design. The study was a 17-week randomized, double-blind, placebo-controlled, crossover study with in-house blinding to evaluate the effect of {(7R)-4-fluoro-7-[5-(4-fluorobenzyl)-1H-[1,2,3]triazol-1-yl]-6,7,8,9-tetrahydropyrido[1,2-a]indol-10-yl}-acetic acid (hereinafter “Compound A”) on FEV1 when dosed for 4 weeks in asthmatic subjects with persistent symptoms while receiving montelukast (ML). Overall, 104 patients completed the study. Period I was a pre-study period. Subjects receiving long acting beta-agonists (LABAs) with inhaled corticosteroid (ICS), either separately or as part of a fixed-dose combination, were asked to discontinue the LABA component while still receiving ICS. Period II was a 2- to 4-week run-in period during which subjects receive open-label montelukast (ML) and single-blind placebo (PBO). Subjects receiving ICS or other controllers were required to taper off these medications while receiving montelukast; Period III was a 4-week, double-blind, randomized treatment period during which subjects received either Compound A 150 mg or matching-image placebo while continuing to receive montelukast 10 mg QD; Period IV was a 4-week wash out period during which subjects receive placebo in a single-blind fashion while continuing to receive montelukast 10 mg QD; Period V was a 4-week double-blind period during which subjects were crossed over to the opposite treatment not received during Period III.
The primary efficacy endpoint of the study was forced expiratory volume in 1 second (FEV1) after 4 weeks of dosing, and the study had 85% power to detect a true overall mean treatment difference of 110 mL.
A common analysis for crossover designs with longitudinal measurements in each period uses a linear mixed effects “cell means” model with the clinical measure (here, FEV1) as the dependent variable, and sequence (S=M→P, P→M), treatment (T=M,P), visit (V=0, 2, 4 weeks), and all possible interactions involving S, T, and V as independent variables; M=Compound A+montelukast, P=placebo+montelukast. In addition, to minimize assumptions, a covariance matrix without imposition of any structure (such as compound symmetry) is used to account for the intra-patient correlations among FEV1 responses over time and across the two treatments within each sequence.
This common analysis can be misleading if both of the following conditions are encountered in either crossover sequence: (i) the observed mean difference in baseline means for the two treatments is “far” from zero, and (ii) baseline and post-baseline responses are very strongly correlated (correlation 0.9 or higher). […] Consequently, we analyzed the FEV1 data using an extension of the method of analysis described in Mehrotra D V, Pharmaceutical Statistics 13, 376-387 (2014). This second analytical method is specifically designed for crossover analyses with baseline measurements. To do so, we added “xdiff” (baseline difference between treatments M and P) and interactions between xdiff and all the other fixed effect terms involving S, T, and V to the aforementioned common analysis crossover model; the mean treatment difference at week 4 was estimated at xdiff=0 via the SAS code below.
In the SAS code above, patients with a missing xdiff value are automatically removed from the analysis. To generate results in which all 103 patients are retained in the analysis, missing period 2 baseline FEV1 values (resulting in missing xdiff values, which was the case for ˜20% of the patients due to dropout) were imputed separately in each sequence via a simple linear regression model with the period 2 baseline as the dependent variable and the corresponding period 1 baseline as the independent variable. As noted earlier, the observed correlation between period 1 and period 2 FEV1 baselines was 0.9 in both sequences, providing reassurance that the imputed values for missing period 2 baselines had good reliability. […]

allergic rhinitis = settings: in vivo; cited from earlier work

Cc1c(CC(=O)O)c2cccnc2n1Cc1ccc(S(C)(=O)=O)cc1C(F)(F)F [fevipiprant, 2-(2-methyl-1-(4-(methylsulfonyl)-2-(trifluoromethyl)benzyl)-1H-pyrrolo[2,3-b]pyridin-3-yl)acetic acid]
Sputum eosinophils [1]: reduction of sputum eosinophils

O=C(O)Cc1c2n(c3c(F)cccc13)C[C@H](n1nncc1Cc1ccc(F)cc1)CC2 [Compound A, {(7R)-4-fluoro-7-[5-(4-fluorobenzyl)-1H-[1,2,3]triazol-1-yl]-6,7,8,9-tetrahydropyrido[1,2-a]indol-10-yl}-acetic acid]
FEV1: Estimated Mean Treatment Difference at Week 4 by Genotype Subgroup for rs12748961, LSMean ([2]; C = 0 (N = 74), no copies of the C allele): 59 mL | FEV1: Estimated Mean Treatment Difference at Week 4 by Genotype Subgroup for rs12748961, LSMean ([2]; C ≥1 (N = 29), one or two copies of the C allele): 268 mL | Estimated mean treatment difference in FEV1 at Week 4 using the new method of analysis, LSMean ([2]; missing period 2 FEV1 baselines imputed: No (N = 85)): 120 mL | Estimated mean treatment difference in FEV1 at Week 4 using the new method of analysis, LSMean ([2]; missing period 2 FEV1 baselines imputed: Yes (N = 103)): 122 mL | Effectiveness in improving FEV1 levels relative to placebo ([2]; after four weeks of treatment in patients who continue to take montelukast as background therapy): notably more effective | Estimated benefit (FEV1) in patients without the C allele of rs12748961 ([2]; remaining 70% of the patients (C = 0)): relatively small

O=C(O)CCn1c2c(c3ccccc31)C[C@H](NS(=O)(=O)c1ccc(F)cc1)CC2 [Ramatroban, 3-((3R)-3-{[(4-fluorophenyl)sulfonyl]amino}-1,2,3,4-tetrahydro-9H-carbazol-9-yl)propanoic acid]
Efficacy in allergic rhinitis (allergic rhinitis): some degree of efficacy
